Data taken from ChEMBL document CHEMBL5505996, “Discovery of novel osthole derivatives exerting anti-inflammatory effect on DSS-induced ulcerative colitis and LPS-induced acute lung injury in mice” (Eur J Med Chem, 2024).
≈ marks a conversion by molar mass, not a printed value. Calls of active or inactive are those of the source. No cut-off for these calls is given here.

What was measured:
Mus musculus [1] = test: Antiinflammatory activity against C57BL/6 mouse model of DSS induced ulcerative colitis assessed as reduction in IL-6 level in serum at 100 mg/kg, po administered daily for 10 days; format: functional, organism-based; settings: time 10.0 day
Mus musculus [2] = test: Antiinflammatory activity against C57BL/6 mouse model of DSS induced ulcerative colitis assessed as reversal of weight loss at 100 mg/kg, po administered daily for 10 days; format: functional, organism-based; settings: time 10.0 day
Mus musculus [3] = test: Antiinflammatory activity against C57BL/6 mouse model of DSS induced ulcerative colitis assessed as reversal of shortened intestinal length due to fecal obstruction at 100 mg/kg, po administered daily for 10 days; format: functional, organism-based; settings: time 10.0 day
Mus musculus [4] = test: Antiinflammatory activity against C57BL/6 mouse model of DSS induced ulcerative colitis assessed as reduction in inflammatory cytokines infiltration in intestine at 100 mg/kg, po administered daily for 10 days by immunohistochemical staining based analysis; format: functional, organism-based; settings: time 10.0 day
J774.A1 [5] = test: Antiinflammatory activity against LPS-induced mouse J774.A1 cells assessed as inhibition of IL-6 release at 10 uM pretreated for 30 mins followed by LPS stimulation and measured after 24 hrs by ELISA relative to control; format: functional; settings: time 24.5 hrs
J774.A1 [6] = test: Antiinflammatory activity against LPS-induced mouse J774.A1 cells assessed as inhibition of IL-6 release at 10 uM pretreated for 30 mins followed by LPS stimulation and measured after 24 hrs by ELISA; format: functional, cell-based; settings: time 24.5 hrs
[7] = Aqueous solubility of compound in phosphate buffer at pH 7.4 measured after 24 hrs by HPLC analysis; format: physicochemical
RAW264.7 [8] = test: Antiinflammatory activity against LPS-induced mouse RAW264.7 cells assessed as inhibition of IL-6 release pretreated for 30 mins followed by LPS stimulation and measured after 24 hrs by ELISA; format: functional, cell-based
RAW264.7 [9] = test: Antiinflammatory activity against LPS-induced mouse RAW264.7 cells assessed as inhibition of TNF-alpha release pretreated for 30 mins followed by LPS stimulation and measured after 24 hrs by ELISA; format: functional, cell-based
J774.A1 [10] = test: Antiinflammatory activity against LPS-induced mouse J774.A1 cells assessed as inhibition of IL-6 release at 1.25 to 10 uM pretreated for 30 mins followed by LPS stimulation and measured after 24 hrs by ELISA; format: functional, cell-based; settings: dose 1.25-10 µM, time 24.5 hrs
J774.A1 [11] = test: Antiinflammatory activity against LPS-induced mouse J774.A1 cells assessed as inhibition of TNF-alpha release at 1.25 to 10 uM pretreated for 30 mins followed by LPS stimulation and measured after 24 hrs by ELISA; format: functional, cell-based; settings: dose 1.25-10 µM, time 24.5 hrs
THP-1 [12] = test: Antiinflammatory activity against LPS-induced PMA-differentiated human THP-1 cells assessed as inhibition of IL-6 release at 5 to 40 uM pretreated for 30 mins followed by LPS stimulation and measured after 24 hrs by ELISA; format: functional, cell-based; settings: dose 5-40 µM, time 24.5 hrs
THP-1 [13] = test: Antiinflammatory activity against LPS-induced PMA-differentiated human THP-1 cells assessed as inhibition of TNF-alpha release at 5 to 40 uM pretreated for 30 mins followed by LPS stimulation and measured after 24 hrs by ELISA; format: functional, cell-based; settings: dose 5-40 µM, time 24.5 hrs
J774.A1 [14] = test: Cytotoxicity against mouse J774.A1 cells assessed as reduction in cell proliferation at 10 uM measured after 24 hrs by CCK-8 assay; format: toxicity, cell-based; settings: j774.a1, 24 h
Mus musculus [15] = test: Antiinflammatory activity against C57BL/6 mouse model of LPS induced acute lung injury assessed as reduction in pulmonary edema by measuring reduction in lung wet/dry ratio at 20 mg/kg, po administered every 12 hrs for 3 times followed by LPS stimulation for 6 hrs starting from 30 mins post last dose; format: functional, organism-based; settings: time 42.5 hrs
Mus musculus [16] = test: Antiinflammatory activity against C57BL/6 mouse model of LPS induced acute lung injury assessed as reduction in total number of cells in BALF at 20 mg/kg, po administered every 12 hrs for 3 times followed by LPS stimulation for 6 hrs starting from 30 mins post last dose; format: functional, organism-based; settings: time 42.5 hrs
Mus musculus [17] = test: Antiinflammatory activity against C57BL/6 mouse model of LPS induced acute lung injury assessed as reduction in IL-6 level in BALF at 20 mg/kg, po administered every 12 hrs for 3 times followed by LPS stimulation for 6 hrs starting from 30 mins post last dose by ELISA; format: functional, organism-based; settings: time 42.5 hrs
Mus musculus [18] = test: Antiinflammatory activity against C57BL/6 mouse model of LPS induced acute lung injury assessed as reduction in IL-6 level in serum at 20 mg/kg, po administered every 12 hrs for 3 times followed by LPS stimulation for 6 hrs starting from 30 mins post last dose by ELISA; format: functional, organism-based; settings: time 42.5 hrs
Mus musculus [19] = test: Antiinflammatory activity against C57BL/6 mouse model of LPS induced acute lung injury assessed as reduction in IL-6 mRNA expression in lung at 20 mg/kg, po administered every 12 hrs for 3 times followed by LPS stimulation for 6 hrs starting from 30 mins post last dose by RT-qPCR analysis; format: functional, organism-based; settings: time 42.5 hrs
Mus musculus [20] = test: Antiinflammatory activity against C57BL/6 mouse model of LPS induced acute lung injury assessed as reduction in TNF-alpha mRNA expression in lung at 20 mg/kg, po administered every 12 hrs for 3 times followed by LPS stimulation for 6 hrs starting from 30 mins post last dose by RT-qPCR analysis; format: functional, organism-based; settings: time 42.5 hrs

Structure (SMILES)	inhibition at 10 µM (J774.A1 [5]) [%]	also measured
Nc1ccc(O)c(C(=O)O)c1	–	Activity (Mus musculus [1]): Active; Activity (Mus musculus [2]): Active; Activity (Mus musculus [3]): Active; Activity (Mus musculus [4]): Active
CCN1CCN(C(=O)COc2ccc3ccc(=O)oc3c2CC=C(C)C)CC1	46	–
CC(C)=CCc1c(OCC2CC2)ccc2ccc(=O)oc12	64.2	–
CC(C)=CCc1c(OCC(=O)NCCCN2CCOCC2)ccc2ccc(=O)oc12	21.5	–
CC(C)=CCc1c(OCCN2CCCCC2)ccc2ccc(=O)oc12	10.6	–
CC(C)=CCc1c(OCCN(C)C)ccc2ccc(=O)oc12	–	Activity (J774.A1 [6]): inactive
COc1cccc(COc2ccc3ccc(=O)oc3c2CC=C(C)C)c1	80.2	–
CC(C)=CCc1c(OCCN2CCOCC2)ccc2ccc(=O)oc12	71.7	–
CC(C)=CCc1c(OCCN2CCCC2)ccc2ccc(=O)oc12	–	Activity (J774.A1 [6]): inactive
CC(C)=CCc1c(OCCNCCN2CCOCC2)ccc2ccc(=O)oc12	46.8	–
CC(C)=CCc1c(OCCN2CCN(C)CC2)ccc2ccc(=O)oc12	69	–
CC(C)=CCc1c(OCC2CCCO2)ccc2ccc(=O)oc12 (centres undefined)	82.5	–
CC(C)=CCc1c(OCCN2CCCC(C)C2)ccc2ccc(=O)oc12 (centres undefined)	31.4	–
CCN1CCN(CCOc2ccc3ccc(=O)oc3c2CC=C(C)C)CC1	88.6	–
CC(C)=CCc1c(OCCCN2CCCC2)ccc2ccc(=O)oc12	63.3	–
CC(C)=CCc1c(OCc2cccc(C)c2)ccc2ccc(=O)oc12	77.9	–
COc1ccc2ccc(=O)oc2c1CC=C(C)C [OSTHOLE]	–	solubility at 24 h [7]: 10 µg/mL (≈ 40.9 µM); IC50 (RAW264.7 [8]): 146 µM; IC50 (RAW264.7 [9]): 113 µM; Activity (J774.A1 [10]): inactive; Activity (J774.A1 [11]): inactive; Activity (THP-1 [12]): inactive; Activity (THP-1 [13]): inactive
CC(C)=CCc1c(OCc2ccc(C)cc2)ccc2ccc(=O)oc12	88.7	–
CC(C)=CCc1c(OCCCCN2CCN(C)CC2)ccc2ccc(=O)oc12	82.3	–
CC(C)=CCc1c(OCCCN2CCOCC2)ccc2ccc(=O)oc12	69	–
CC(C)=CCc1c(OCc2cccc(F)c2)ccc2ccc(=O)oc12	68.8	–
CC(C)=CCc1c(OCC2CCCCC2)ccc2ccc(=O)oc12	88	–
CCN1CCN(CCCOc2ccc3ccc(=O)oc3c2CC=C(C)C)CC1	92.2	Activity (J774.A1 [14]): Toxic
CC(C)=CCc1c(OCC(=O)Nc2ccccc2Br)ccc2ccc(=O)oc12	88.3	Activity (J774.A1 [14]): Toxic
CC(C)=CCc1c(OCCCN2CCN(C)CC2)ccc2ccc(=O)oc12	81.9	–
C[C@@H]1C[C@H]2[C@@H]3CCC4=CC(=O)C=C[C@]4(C)[C@@]3(F)[C@@H](O)C[C@]2(C)[C@@]1(O)C(=O)CO	–	Activity (Mus musculus [15]): Active; Activity (Mus musculus [16]): Active; Activity (Mus musculus [17]): Active; Activity (Mus musculus [18]): Active; Activity (Mus musculus [19]): Active; Activity (Mus musculus [20]): Active
CC(C)=CCc1c(OCC(=O)Nc2ccccc2)ccc2ccc(=O)oc12	48.5	–
CC(C)=CCc1c(OCC2CO2)ccc2ccc(=O)oc12 (centres undefined)	82.3	–
